Where two headings read alike, the source gives them in different places. Residues, ends and D or L forms follow the SMILES beside them.
Key:
α-glucosidase [1] = target: T1, α-glucosidase (Saccharomyces cerevisiae, UniProt P53341); design: method as in 7 sources, ref [4]; doi:10.1016/j.foodchem.2011.05.067; 4. Yu Z. Yin Y. Zhao W. Yu Y. Liu B. Liu J. Chen F. Novel peptides derived from egg white protein inhibiting alpha-glucosidase Food Chem. 2011 129 1376 1382 10.1016/j.foodchem.2011.05.067 ||| ref [25] = [25]; PMID 22953959; doi:10.1016/j.foodchem.2012.06.088; 25. Yu Z. Yin Y. Zhao W. Liu J. Chen F. Anti-diabetic activity peptides from albumin against alpha-glucosidase and alpha-amylase Food Chem. 2012 135 2078 2085 10.1016/j.foodchem.2012.06.088 22953959 ||| ref [10] = [10]; doi:10.1016/j.lwt.2021.113062; 10. Zhao Q. Wei G. Li K. Duan S. Ye R. Huang A. Identification and molecular docking of novel α-glucosidase inhibitory peptides from hydrolysates of Binglangjiang buffalo casein LWT 2022 156 113062 10 ||| ref [27] = [27]; PMID 36240562; doi:10.1016/j.foodchem.2022.134481; 27. Wang X. Deng Y. Xie P. Liu L. Zhang C. Cheng J. Zhang Y. Liu Y. Huang L. Jiang J. Novel bioactive peptides from ginkgo biloba seed protein and evaluation of their alpha-glucosidase inhibition acti ||| ref [43] = [43]; PMID 34920404; doi:10.1016/j.foodchem.2021.131717; 43. Chandrasekaran S. Gonzalez de Mejia E. Optimization, identification, and comparison of peptides from germinated chickpea ( Cicer arietinum ) protein hydrolysates using either papain or ficin and t ||| ...; conditions: cited from earlier work; for IC50 values: from germinated chickpea protein, ref [43]
T1 sequence (P53341 whole entry): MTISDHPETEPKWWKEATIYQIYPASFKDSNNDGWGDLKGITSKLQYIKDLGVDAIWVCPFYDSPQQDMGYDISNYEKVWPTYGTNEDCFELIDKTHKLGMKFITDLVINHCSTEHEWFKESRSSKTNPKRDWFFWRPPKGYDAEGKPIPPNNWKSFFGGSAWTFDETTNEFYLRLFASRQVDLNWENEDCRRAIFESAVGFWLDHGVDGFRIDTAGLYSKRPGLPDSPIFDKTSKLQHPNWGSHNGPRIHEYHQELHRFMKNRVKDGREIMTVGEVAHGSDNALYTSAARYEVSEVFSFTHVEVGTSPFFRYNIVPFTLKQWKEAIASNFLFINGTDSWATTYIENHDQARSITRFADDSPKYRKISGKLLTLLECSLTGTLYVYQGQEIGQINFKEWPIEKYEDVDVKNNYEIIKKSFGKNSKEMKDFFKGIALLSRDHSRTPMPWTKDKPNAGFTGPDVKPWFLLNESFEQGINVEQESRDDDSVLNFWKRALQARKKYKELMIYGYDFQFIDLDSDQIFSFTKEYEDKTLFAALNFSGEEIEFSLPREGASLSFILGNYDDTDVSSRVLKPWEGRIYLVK

α-glucosidase [2] = target: T1, α-glucosidase; experiment: α-glucosidase inhibition activity (PNPG); format: biochemical; conditions: synthetic peptides; enzyme 0.2 U/mL, preincubation 25 °C 10 min, PNPG 5 mmol/L, 30 min 37 °C, 405 nm; mean ± SD, three repetitions
Excerpt: Shiitake mushrooms were acquired from a farmers’ market. Neutral protease (50 U/mg), pepsin (1:30,000), alkaline protease (200 U/mg), acid protease (50 U/mg), papain (800 U/mg), and flavor protease (20 U/mg) were purchased from Qiyi Biotechnology (Shanghai, China) Co., Ltd. α-glucosidase (10 U/mg) and 4-nitrophenyl a-D-glucopyranoside (PNPG, 99% purity) were purchased from Sigma-Aldrich (St. Louis, MO, USA). Acetonitrile (HPLC grade, 99.9% purity) was purchased from Fisher Chemical (Hampton, NH, USA). Formic acid (LC-MS grade, 99% purity) was purchased from Thermo Scientific (Waltham, MA, USA). Other reagents were of analytical grade and commercially available.
A quantity of 100 μL α-glucosidase solution (0.2 U/mL) was premixed with 50 μL sample solution in the enzyme label plate, and incubated at 25 °C for 10 min; 50 μL of PNPG (5 mmol/L) solution was added to start reactions, and incubation was continued for another 30 min at 37 °C. The reaction was terminated with 50 μL 0.67 mol/L Na2CO3 solution. The absorbance value was measured at 405 nm using an AMR-100 automatic enzyme label analyzer. The results were calculated using the following formula:Inhibitory rate (%) = ((Acontrol − Asample)/Acontrol) × 100(1)
All experiments had three repetitions. Data are expressed as mean ± standard deviation. Statistical significance (Duncan’s test, p < 0.05) was analyzed by DPS. Response surface data were analyzed using Design-ExpertV8.0.6 software.

[3] = from Binglangjiang buffalo casein, ref [10], read-out: IC50 values, inhibitory activity of α-glucosidase
[4] = from ginkgo biloba seed protein, ref [27], read-out: IC50 values, α-glucosidase inhibitory activity

## FALPQYLK [from Binglangjiang buffalo casein]
α-glucosidase [1]; [3]
  IC50: 543 µM

## SPGAGKG [from germinated chickpea protein]
α-glucosidase [1]
  IC50 values: 1800 µg/mL

## LSMSFPPF [identified from ginkgo biloba seed protein]
α-glucosidase [1]; [4]
  IC50: 454 ± 32.5 µM

## RNAVPITPTLNR [from Binglangjiang buffalo casein]
α-glucosidase [1]; [3]
  IC50: 504 µM

## CC(C)C[C@H](NC(=O)[C@H](CC(=O)O)NC(=O)[C@H](CC(=O)O)NC(=O)[C@@H](N)CCCCN)C(=O)N[C@@H](CCCNC(=N)N)C(=O)N[C@@H](CO)C(=O)N1CCC[C@H]1C(=O)O [KDDLRSP] (H-KDDLRSP-OH)
α-glucosidase [2]
  IC50: 550 ± 37 µM

## CC(C)C[C@H](NC(=O)[C@H](CCCCN)NC(=O)CNC(=O)[C@H](Cc1ccc(O)cc1)NC(=O)[C@H](CC(=O)O)NC(=O)[C@@H](N)CC(C)C)C(=O)O [LDYGKL] (H-LDYGKL-OH)
α-glucosidase [2]
  IC50: 696 ± 39 µM

## TKVIPYVRYL [from Binglangjiang buffalo casein]
α-glucosidase [1]; [3]
  IC50: 498 µM

## KLPGF
α-glucosidase [1]; from albumin, ref [25], read-out: IC50 of α-glucosidase inhibitory peptide
  IC50: 59.5 ± 5.7 µM

## GLAR [from germinated chickpea protein]
α-glucosidase [1]
  IC50 values: 8700 µg/mL

## VPKIPPP [identified from ginkgo biloba seed protein]
α-glucosidase [1]; [4]
  IC50: 1450 ± 67 µM

## MPGPPSD [identified from ginkgo biloba seed protein]
α-glucosidase [1]; [4]
  IC50: 944 ± 73.1 µM

## CC(C)C[C@H](NC(=O)[C@H](CCCCN)NC(=O)[C@@H]1CCCN1C(=O)[C@H](CCC(=O)O)NC(=O)CNC(=O)[C@@H](N)CCC(=O)O)C(=O)N1CCC[C@H]1C(=O)O [EGEPKLP] (H-EGEPKLP-OH)
α-glucosidase [2]
  IC50: 499 ± 39 µM

## RVPSLM [identified from egg white protein]
α-glucosidase [1]; identified from egg white protein, ref [4], read-out: IC50 value, α-glucosidase inhibitory activity
  IC50: 23.1 µM

## CC(C)C[C@H](NC(=O)[C@H](CCCCN)NC(=O)[C@H](CC(C)C)NC(=O)[C@H](CCC(=O)O)NC(=O)[C@@H]1CCCN1C(=O)[C@@H](N)[C@@H](C)O)C(=O)O [TPELKL] (H-TPELKL-OH)
α-glucosidase [2]
  IC50: 452 ± 36 µM

## YLGYLEQLLR [from Binglangjiang buffalo casein]
α-glucosidase [1]; [3]
  IC50: 470 µM
